# Experimental data reported in patent US8889688B2, “Piperazines as antimalarial agents” (Actelion Pharmaceuticals Ltd., priority 2011, dated 2014).
# Read-outs that look alike come from different tables or passages of the source.
# Key:
# [1] = system: erythrocytic stages of P. falciparum NF54; assay: Plasmodium falciparum in vitro assay, [3H] hypoxanthine incorporation; format: cell-based; conditions: P. falciparum NF54 in human red blood cells, 48 h + 24 h incubation
# Protocol: In Vitro Antimalarial Activity: Plasmodium falciparum In Vitro Assay In vitro activity against erythrocytic stages of P. falciparum in human red blood cells is determined using a [^3H] hypoxanthine incorporation assay. […] Thereafter, the parasite cultures incubated in screening medium containing washed human red blood cells at 2.5% hematocrit (0.3% parasitemia) are added to the serially diluted compounds and incubated in a humidifying atmosphere at 37° C., 4% CO2, 3% O2, and 93% N2. After 48 h, [^3H] hypoxanthine (0.5 μCi) is added to each well of a plate. The plates are incubated for a further 24 h under the same conditions then harvested with a Betaplate cell harvester (Wallac) and washed with distilled water. The dried filters are inserted into a plastic foil with 10 mL of scintillation fluid, and counted in a Betaplate liquid scintillation counter. IC50 values are calculated from sigmoidal inhibition curves using Microsoft Excel.
# [2] = system: P. berghei strain GFP-ANKA; assay: In vivo antimalarial efficacy study in infected NMRI mice; conditions: female NMRI mice infected with P. berghei GFP-ANKA, single oral dose of 100 mg/kg 24 h after infection, parasitemia 48 h after drug treatment (day 3); for inhibition in vivo at 100 mg/kg: Plasmodium berghei, read-out: Activity (inhibition of parasitemia) expressed as a percent relative to the control group
# Protocol: In Vivo Antimalarial Efficacy Studies
# In vivo antimalarial activity is assessed for groups of three female NMRI mice (20-22 g) intravenously infected on day 0 with P. berghei strain GFP-ANKA (0.2 mL heparinized saline suspension containing 2×10^7 parasitized erythrocytes). In control mice, parasitemia typically rises to approximately 40% by day 3 after infection. Compounds are formulated in Tween 80/ethanol (7%/3%) usually at concentrations of 10 mg/mL. Compounds are administered in a volume of 10 mL/kg orally as single doses (1×100 mg/kg, 24 h after infection). 48 h after drug treatment (day 3 post-infection), 1 μl tail blood is taken, resuspended in 1 mL PBS buffer and parasitemia determined with a FACScan (Becton Dickinson) by counting 100′000 red blood cells. Activity is calculated as the difference between the mean value of the control group and treated groups expressed as a percent relative to the control group.
# [3] = Plasmodium falciparum, Erythrocyte, 72 h, screening medium with Albumax (5 g/L), read-out: IC50 on NF54 (with Albumax)
# [4] = Plasmodium falciparum, Erythrocyte, 72 h, screening medium with human serum (50% final concentration), read-out: IC50 on NF54 (with 50% Serum)
Compound,"IC50 [1, 3]","IC50 [1, 4]",inhibition in vivo at 100 mg/kg [2],"IC50 ([1]; screening medium with Albumax (5 g/L), read-out: IC50 on NF54 (with Albumax))","IC50 ([1]; screening medium with human serum (50% final concentration), read-out: IC50 on NF54 (with 50% Serum))",Activity (inhibition of parasitemia) expressed as a percent relative to the control group [2]
"CC(=O)N1CCN(c2ccc(CN(C(=O)C=Cc3ccc(C(C)C)cc3)[C@@H](Cc3ccccc3)C(=O)N3CCN(Cc4ccc(Cl)cc4)CC3)cc2)CC1 [Example 42, (S)-N-[4-(4-Acetyl-piperazin-1-yl)-benzyl]-N-{1-benzyl-2-[4-(4-chloro-benzyl)-piperazin-1-yl]-2-oxo-ethyl}-3-(4-isopropyl-phenyl)-acrylamide]",1.7 nM,13.7 nM,97.3%,–,–,–
"CCS(=O)(=O)c1ccc(CN2CCN(C(=O)[C@H](Cc3ccccc3)N(Cc3ccc(N4CCN(C(C)=O)CC4)cc3)C(=O)C=Cc3ccc(C(F)(F)F)cc3)CC2)cc1 [Example 49, (S)-N-(4-(4-acetylpiperazin-1-yl)benzyl)-N-(1-(4-(4-(ethylsulfonyl)benzyl)piperazin-1-yl)-1-oxo-3-phenylpropan-2-yl)-3-(4-(trifluoromethyl)phenyl)acrylamide]",0.8 nM,3.1 nM,98.6%,–,–,–
"CCOc1ccc(C=CC(=O)N(Cc2ccc(N3CCN(C(C)=O)CC3)cc2)[C@@H](Cc2ccccc2)C(=O)N2CCN(Cc3ccc(N(C)CCO)cc3)CC2)cc1 [Example 54, (S)-N-[4-(4-Acetyl-piperazin-1-yl)-benzyl]-N-[1-benzyl-2-(4-{4-[(2-hydroxy-ethyl)-methyl-amino]-benzyl}-piperazin-1-yl)-2-oxo-ethyl]-3-(4-ethoxy-phenyl)-acrylamide]",1.6 nM,5.9 nM,93.7%,–,–,–
"CC(=O)N1CCN(c2ccc(CN(C(=O)C=Cc3ccc(C(C)(C)C)cc3)[C@@H](Cc3ccccc3)C(=O)N3CCN(Cc4ccc(C#N)cc4)CC3)cc2)CC1 [Example 34, (S)-N-[4-(4-Acetyl-piperazin-1-yl)-benzyl]-N-{1-benzyl-2-[4-(4-cyano-benzyl)-piperazin-1-yl]-2-oxo-ethyl}-3-(4-tert-butyl-phenyl)-acrylamide]",0.5 nM,3.8 nM,99.2%,–,–,–
"CCOc1ccc(C=CC(=O)N(Cc2ccc(N3CCN(C(C)=O)CC3)cc2)[C@@H](Cc2ccccc2)C(=O)N2CCN(Cc3ccc(C#N)cc3)CC2)cc1 [Example 25, (S)-N-[4-(4-Acetyl-piperazin-1-yl)-benzyl]-N-{1-benzyl-2-[4-(4-cyano-benzyl)-piperazin-1-yl]-2-oxo-ethyl}-3-(4-ethoxy-phenyl)-acrylamide]",1.2 nM,4.7 nM,99.1%,–,–,–
"CC(=O)N1CCN(c2ccc(CN(C(=O)C=Cc3ccc(C(C)C)cc3)[C@@H](Cc3ccccc3)C(=O)N3CCN(Cc4ccc(C#N)cc4)CC3)cc2)CC1 [Example 32, (S)-N-[4-(4-Acetyl-piperazin-1-yl)-benzyl]-N-{1-benzyl-2-[4-(4-cyano-benzyl)-piperazin-1-yl]-2-oxo-ethyl}-3-(4-isopropyl-phenyl)-acrylamide]",0.5 nM,4.4 nM,98.5%,–,–,–
"CCCOc1ccc(C=CC(=O)N(Cc2ccc(N3CCN(C(C)=O)CC3)cc2)[C@@H](Cc2ccccc2)C(=O)N2CCN(Cc3ccccc3)CC2)cc1 [Example 8, (S)-N-[4-(4-Acetyl-piperazin-1-yl)-benzyl]-N-[1-benzyl-2-(4-benzyl-piperazin-1-yl)-2-oxo-ethyl]-3-(4-propoxy-phenyl)-acrylamide]",1.8 nM,13.4 nM,99.4%,–,–,–
"CCCOc1ccc(C=CC(=O)N(Cc2ccc(N3CCN(C(C)=O)CC3)cc2)[C@@H](Cc2ccccc2)C(=O)N2CCN(Cc3ccc(N(C)C)cc3)CC2)cc1 [Example 18, (S)-N-[4-(4-Acetyl-piperazin-1-yl)-benzyl]-N-{1-benzyl-2-[4-(4-dimethylamino-benzyl)-piperazin-1-yl]-2-oxo-ethyl}-3-(4-propoxy-phenyl)-acrylamide]",2.5 nM,11.8 nM,99.1%,–,–,–
"CCCOc1ccc(C=CC(=O)N(Cc2ccc(N3CCN(C(C)=O)CC3)cc2)[C@@H](Cc2ccccc2)C(=O)N2CCN(Cc3ccc(N(C)CCO)cc3)CC2)cc1 [Example 57, (S)-N-[4-(4-Acetyl-piperazin-1-yl)-benzyl]-N-[1-benzyl-2-(4-{4-[(2-hydroxy-ethyl)-methyl-amino]-benzyl}-piperazin-1-yl)-2-oxo-ethyl]-3-(4-propoxy-phenyl)-acrylamide]",1.7 nM,5.1 nM,98.2%,–,–,–
(S)-N-[4-(4-Acetyl-piperazin-1-yl)-benzyl]-N-[1-benzyl-2-(4-{4-[(2-hydroxy-ethyl)-methyl-amino]-benzyl}-piperazin-1-yl)-2-oxo-ethyl]-3-(4-isopropyl-phenyl)-acrylamide [Example 61],–,–,–,1.2 nM,6.7 nM,98.8%
"CC(=O)N1CCN(c2ccc(CN(C(=O)C=Cc3ccc(OC(C)C)cc3)[C@@H](Cc3ccccc3)C(=O)N3CCN(Cc4ccccc4)CC3)cc2)CC1 [Example 9, (S)-N-[4-(4-Acetyl-piperazin-1-yl)-benzyl]-N-[1-benzyl-2-(4-benzyl-piperazin-1-yl)-2-oxo-ethyl]-3-(4-isopropoxy-phenyl)-acrylamide]",2.4 nM,7.3 nM,99.1%,–,–,–
"CC(=O)N1CCN(c2ccc(CN(C(=O)C=Cc3ccc(C(F)(F)F)cc3)[C@@H](Cc3ccccc3)C(=O)N3CCN(Cc4ccc(C#N)cc4)CC3)cc2)CC1 [Example 24, (S)-N-[4-(4-Acetyl-piperazin-1-yl)-benzyl]-N-{1-benzyl-2-[4-(4-cyano-benzyl)-piperazin-1-yl]-2-oxo-ethyl}-3-(4-trifluoromethyl-phenyl)-acrylamide]",2.8 nM,13.9 nM,79.2%,–,–,–
"CCOc1ccc(C=CC(=O)N(Cc2ccc(N3CCN(C(C)=O)CC3)cc2)[C@@H](Cc2ccccc2)C(=O)N2CCN(Cc3ccc(N(C)CCO)cc3)CC2)cn1 [Example 53, (S)-N-[4-(4-Acetyl-piperazin-1-yl)-benzyl]-N-[1-benzyl-2-(4-{4-[(2-hydroxy-ethyl)-methyl-amino]-benzyl}-piperazin-1-yl)-2-oxo-ethyl]-3-(6-ethoxy-pyridin-3-yl)-acrylamide]",4.3 nM,12.4 nM,52.3%,–,–,–
"CC(=O)N1CCN(c2ccc(CN(C(=O)C=Cc3ccc(C(C)(C)C)cc3)[C@@H](Cc3ccccc3)C(=O)N3CCN(Cc4ccccc4)CC3)cc2)CC1 [Example 3, (S)-N-[4-(4-Acetyl-piperazin-1-yl)-benzyl]-N-[1-benzyl-2-(4-benzyl-piperazin-1-yl)-2-oxo-ethyl]-3-(4-tert-butyl-phenyl)-acrylamide]",1.9 nM,8.5 nM,98.7%,–,–,–
"CC(=O)c1ccc(C=CC(=O)N(Cc2ccc(N3CCN(C(C)=O)CC3)cc2)[C@@H](Cc2ccccc2)C(=O)N2CCN(Cc3ccc(N(C)C)cc3)CC2)cc1 [Example 70, (S)-3-(4-Acetyl-phenyl)-N-[4-(4-acetyl-piperazin-1-yl)benzyl]-N-{1-(4-(4-(dimethylamino)benzyl)piperazin-1-yl)-1-oxo-3-phenylpropan-2-yl}acrylamide]",< 3.1 nM,16 nM,–,–,–,–
"CCOc1ccc(C=CC(=O)N(Cc2ccc(N3CCN(C(C)=O)CC3)cc2)[C@@H](Cc2ccccc2)C(=O)N2CCN(Cc3ccc(N(C)C)cc3)CC2)cn1 [Example 14, (S)-N-[4-(4-Acetyl-piperazin-1-yl)-benzyl]-N-{1-benzyl-2-[4-(4-dimethylamino-benzyl)-piperazin-1-yl]-2-oxo-ethyl}-3-(6-ethoxy-pyridin-3-yl)-acrylamide]",3.7 nM,20 nM,–,–,–,–
"CC(=O)Nc1ccc(C=CC(=O)N(Cc2ccc(N3CCN(C(C)=O)CC3)cc2)[C@@H](Cc2ccccc2)C(=O)N2CCN(Cc3ccc(Cl)cc3)CC2)cc1 [Example 37, (S)-3-(4-Acetylamino-phenyl)-N-[4-(4-acetyl-piperazin-1-yl)-benzyl]-N-{1-benzyl-2-[4-(4-chloro-benzyl)-piperazin-1-yl]-2-oxo-ethyl}-acrylamide]",3.2 nM,28 nM,–,–,–,–
